Assay results reported in US6426355B1, “Heterocyclic carboxamide-containing thiourea inhibitors of herpes viruses containing phenylenediamine group” (American Home Products, priority 1998, dated 2002).
Values after ≈ are worked out from the molar mass of the structure shown.

What was measured:
VZV strain Ellen = assay: VZV Antiviral (ELISA) assay; format: cell-based; conditions: for IC50 (ug/ml) VZV / % inhibition 10 ug/ml VZV: VZV strain Ellen in HFF cells; for % inhibition 10 ug/ml VZV: at 10 ug/ml; for IC50: Human alphaherpesvirus 3, VZV strain Ellen in HFF cells, read-out: IC50 (ug/ml) VZV; for inhibition at 10 µg/mL: Human alphaherpesvirus 3, read-out: % inhibition 10 ug/ml VZV, at 10 ug/ml, VZV strain Ellen in HFF cells
Procedure, shortened: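 Cell-based VZV (Ellen) spread assay in HFF, 3-day compound exposure in 2% FBS medium. Viral antigen quantified by fluorescent β-galactosidase ELISA; IC50 from inhibition of signal.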

[1] = test system: HCMV recombinant mutant virus (RV145); assay: HCMV microtiter plate assay (beta-glucuronidase reporter); format: cell-based, Human Cytomegalovirus; conditions: for IC50 (ug/ml) HCMV: HCMV in human foreskin fibroblasts; for IC50: Human betaherpesvirus 5, Fibroblast, read-out: IC50 (ug/ml) HCMV
Procedure, shortened: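 Replication was read out as virus-encoded β-glucuronidase activity, measured with a chromogenic or fluorogenic glucuronide substrate in cell lysates at 96 h post-infection. Infection of human foreskin fibroblasts with RV145 took place with compound present. IC50 was derived from a range of inhibitor amounts.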

HSV-1 = assay: HSV Antiviral (ELISA) assay; format: cell-based; conditions: for IC50 (ug/ml) HSV: HSV-1 in Vero cells; for IC50: Human alphaherpesvirus 1, HSV-1 in Vero cells, read-out: IC50 (ug/ml) HSV
Procedure, shortened: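 Replication measured as glycoprotein D signal in fixed cells: anti-gD antibody plus β-galactosidase-linked secondary, fluorogenic substrate read at 365/450 nm. Vero cells (2% FBS DMEM) received compound 30 min pre-infection, HSV-1 MOI 0.006, ~24 h incubation; IC50 relative to no-compound fluorescence.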

SMILES | IC50 (ug/ml) VZV (VZV strain Ellen) [µg/mL] | % inhibition 10 ug/ml VZV (VZV strain Ellen) [%] | IC50 (ug/ml) HCMV [1] [µg/mL] | IC50 (ug/ml) HSV (HSV-1) [µg/mL] | IC50 (VZV strain Ellen) [µg/mL] | IC50 [1] [µg/mL] | IC50 (HSV-1) [µg/mL] | inhibition at 10 µg/mL (VZV strain Ellen) [%]
CN(C)c1c(Cl)cccc1NC(=S)Nc1ccc(NC(=O)c2csnn2)cc1 [Example 503] | >10 | 64 | 0.053 (≈ 0.122 µM) | 8 (≈ 18.5 µM) | – | – | – | –
O=C(Nc1ccc(NC(=S)Nc2ccc(NC(=O)c3ccccc3F)cc2)cc1Cl)OCCN1CCCCC1 [Example 438] | 1.5 (≈ 2.63 µM) | 73 | 3 (≈ 5.26 µM) | 5 (≈ 8.77 µM) | – | – | – | –
O=C(Nc1ccc(NC(=S)Nc2ccc(NC(=O)c3ccco3)cc2)cc1Cl)c1ccccc1 [Example 403] | >15 | 108 | 0.09 (≈ 0.183 µM) | 6 (≈ 12.2 µM) | – | – | – | –
O=C(Nc1ccc(NC(=S)Nc2ccc(OC(F)(F)F)c(Br)c2)cc1)c1ccco1 [Example 919, Furan-2-carboxylic acid {4-[3-(3-bromo-4-trifluoromethoxy-phenyl)-thioureido]-phenyl}-amide] | – | – | – | – | > 10 | 0.05 (≈ 0.0999 µM) | > 10 | –
CN(C)c1c(Cl)cccc1NC(=S)Nc1ccc(NC(=O)c2ccco2)cc1 [Example 505] | 8 (≈ 19.3 µM) | 79 | 0.2 (≈ 0.482 µM) | 10 (≈ 24.1 µM) | – | – | – | –
O=C(Nc1ccc(NC(=S)Nc2cccc(Cl)c2)cc1)c1ccco1 [Example 993, Furan-2-carboxylic acid {4-[3-(3-chloro-phenyl)-thioureido]-phenyl}-amide] | – | – | – | – | > 10 | 0.013 (≈ 0.035 µM) | > 10 | –
COc1cc(OC)c(NC(=S)Nc2ccc(NC(=O)c3cccc4cccnc34)cc2)cc1Cl [Example 146] | >10 | 14 | >10 | >10 | – | – | – | –
COc1cc(OC)c(NC(=S)Nc2ccc(NC(=O)c3snnc3-c3ccccc3)cc2)cc1Cl [Example 264] | >10 | 28 | >10 | >10 | – | – | – | –
O=C(Nc1ccc(NC(=S)NCCc2ccc(Br)cc2)cc1)c1ccco1 [Example 604] | 10 (≈ 22.5 µM) | – | 0.025 (≈ 0.0563 µM) | >10 | – | – | – | –
O=C(Nc1ccc(NC(=S)NCCc2ccc(F)cc2)cc1)c1ccco1 [Example 561] | 8 (≈ 20.9 µM) | – | 0.05 (≈ 0.13 µM) | >10 | – | – | – | –
O=C(Nc1ccc(NC(=S)Nc2ccc3[nH]cnc3c2)cc1)c1ccco1 [Example 494] | >10 | 6 | 3.5 (≈ 9.27 µM) | >10 | – | – | – | –
O=C(Nc1ccc(NC(=S)Nc2cccc([N+](=O)[O-])c2)cc1)c1ccco1 [Example 1008, Furan-2-carboxylic acid {4-[3-(3-nitro-phenyl)-thioureido]-phenyl} -amide] | – | – | – | – | > 10 | 0.12 (≈ 0.314 µM) | > 10 | 15
O=C(Nc1ccc(NC(=S)Nc2ccc(Cl)cc2)cc1)c1ccccc1F [Example 996, N-{4-[3-(4-Chloro-phenyl)-thioureido]-phenyl}-2-fluoro-benzamide] | – | – | – | – | > 10 | 0.15 (≈ 0.375 µM) | 10 (≈ 25 µM) | –
CN(c1ccc(NC(=S)Nc2ccc(NC(=O)c3ccccn3)cc2)cc1Cl)C1CCCCC1 [Example 249] | >10 | 59 | 0.4 (≈ 0.81 µM) | >10 | – | – | – | –
COc1cc(OC)c(NC(=S)Nc2ccc(NC(=O)c3cccn3C)cc2)cc1Cl [Example 147] | >10 | 42 | >50 | 10 (≈ 22.5 µM) | – | – | – | –
CC(N=[N+]=[N-])c1ccc(NC(=S)Nc2ccc(NC(=O)c3ccco3)cc2)cc1Cl (stereo not drawn) [Example 486] | >10 | 22 | 0.045 (≈ 0.102 µM) | >10 | – | – | – | –
COc1cc(OC)c(NC(=S)Nc2ccc(NC(=O)c3cc(Br)co3)cc2)cc1Cl [Example 169] | >10 | 26 | 4 (≈ 7.83 µM) | 3 (≈ 5.87 µM) | – | – | – | –
O=C(Nc1ccc(NC(=S)NCCc2cc(F)cc(C(F)(F)F)c2)cc1)c1csnn1 [Example 762] | 1.5 (≈ 3.19 µM) | – | 0.002 (≈ 0.00426 µM) | >10 | – | – | – | –
O=C(CN1CCCCC1)Nc1ccc(NC(=S)Nc2ccc(NC(=O)c3csnn3)cc2)cc1Cl [Example 391] | 6 (≈ 11.3 µM) | 97 | 0.019 (≈ 0.0358 µM) | 8 (≈ 15.1 µM) | – | – | – | –
COc1cc(OC)c(NC(=S)Nc2ccc(NC(=O)c3cncc4ccccc34)cc2)cc1Cl [Example 172] | >10 | 25 | >10 | >10 | – | – | – | –
COc1ccc(NC(=S)Nc2ccc(NC(=O)c3csnn3)cc2)cc1Cl [Example 888, [1,2,3]Thiadiazole-4-carboxylic acid {4-[3-(3-chloro-4-methoxy-phenyl)-thioureido]-phenyl}-amide] | – | – | – | – | > 10 | 0.06 (≈ 0.143 µM) | 6 (≈ 14.3 µM) | 31
COc1cc(OC)c(NC(=S)Nc2ccc(NC(=O)c3cccnc3)cc2)cc1Cl [Example 160] | >10 | 27 | >10 | 2.5 (≈ 5.64 µM) | – | – | – | –
O=C(Nc1ccc(NC(=S)Nc2cccc(I)c2)cc1)c1csnn1 [Example 508] | >10 | 7 | 0.013 (≈ 0.027 µM) | >10 | – | – | – | –
COc1cc(OC)c(NC(=S)Nc2ccc(NC(=O)c3occc3C)cc2)cc1Cl [Example 167] | 3.8 (≈ 8.52 µM) | 70 | 9 (≈ 20.2 µM) | 10 (≈ 22.4 µM) | – | – | – | –
CC(C)c1nc(C(=O)Nc2ccc(NC(=S)Nc3ccc(Cl)c(C(F)(F)F)c3)cc2)cs1 [Example 1130, 2-Isopropyl-thiazole-4-carboxylic acid {4-[3-(4-chloro-3-trifluoromethyl-phenyl)-thioureido]-phenyl}-amide] | – | – | – | – | 5.5 (≈ 11 µM) | 2 (≈ 4.01 µM) | 2 (≈ 4.01 µM) | –
O=C(Nc1ccc(NC(=S)NCc2ccccc2)cc1)c1csnn1 [Example 539] | >10 | – | 0.036 (≈ 0.0974 µM) | >10 | – | – | – | –
O=C(Nc1ccc(NC(=S)Nc2ccc(C(F)(F)F)c(Cl)c2)cc1)c1csnn1 [Example 960, [1,2,3]Thiadiazole-4-carboxylic acid {4-[3-(3-chloro-4-trifluoromethyl-phenyl)-thioureido]-phenyl}-amide] | – | – | – | – | > 10 | 0.03 (≈ 0.0655 µM) | > 10 | 58
O=C(Nc1ccc(NC(=S)Nc2ccc(Cl)c(Cl)c2)cc1)c1csnn1 [Example 964, [1,2,3]Thiadiazole-4-carboxylic acid {4-[3-(3,4-dichloro-phenyl)-thioureido]-phenyl}-amide] | – | – | – | – | > 10 | 0.03 (≈ 0.0707 µM) | > 10 | 9
CC(=O)Nc1cccc(NC(=S)Nc2ccc(NC(=O)c3csnn3)cc2)c1 [Example 478] | >10 | 31 | 0.4 (≈ 0.97 µM) | >10 | – | – | – | –
